Assay results as given in US20050165081A1, “Use of anastrozole for the treatment of post-menopausal women having early breast cancer” (priority 2001, published 2005).
Entries after “also recorded” stand apart in the source; their conditions may differ. Structures can show the parent of a compound that is named as a salt. Where two headings read alike, the source gives them in different places.

Columns and labels:
[1] = type: in vivo
Description: (§1) The trial was designed to compare tamoxifen (20 mg once daily [od]) and anastrozole (1 mg od) and to compare tamoxifen (20 mg od) and the combination of anastrozole (1 mg od) plus tamoxifen (20 mg od) as adjuvant treatment in terms of: • a) time to recurrence of breast cancer (defined as the earliest of local or distant recurrence, new primary breast cancer, or death); and • b) safety and side effects. Secondary objectives of this trial were to compare (i) tamoxifen and anastrozole and (ii) to compare tamoxifen and the combination of anastrozole plus tamoxifen as adjuvant treatment in terms of: • a) time to distant recurrence; • b) survival; and • c) incidence of new breast primaries.
(§2) Specifically, the trial was designed as a randomised, double-blind, multicentre trial to compare the efficacy and safety of tamoxifen alone, anastrozole alone and anastrozole in combination with tamoxifen as adjuvant treatment for breast cancer in post-menopausal women.
At the major analysis, the incidence rates of the following pre-defined adverse events was formally compared between treatment groups defined by treatment received: hot flushes, nausea and vomiting, asthenia, mood disturbances, musculo-skeletal disorders, vaginal bleeding, vaginal discharge, endometrial cancer, fractures, cataract, venous thromboembolic events, and ischaemic cardiovascular disease. The primary analysis includes all patients who received trial treatment, analysed according to treatment received. A secondary subgroup analysis was also be undertaken, analysed according to trial treatment received, in patients with oestrogen receptor (ER) positive and/or progesterone receptor (PR) positive tumours, patients with ER negative and PR negative tumours, and all other patients remaining safety data was summarised and presented by treatment received.

early breast cancer = test: Randomised, double-blind, multicentre adjuvant trial: time to disease recurrence / disease-free survival and new breast primaries; type: in vivo, post-menopausal women; conditions: for First event / First events: Contralateral (DCIS) / First events: Contralateral (invasive) / First events: Death - breast cancer / First events: Death - other reason / First events: Distant / First events: Locoregional: number of first events, ITT population
Description: as §1, §2
Patients were assessed at entry, 3 months, 6 months and thereafter at 6-month intervals. Patients were recruited from 381 centres and in 21 countries. The patients were recruited between July 1996 and March 2000.
The double blind trial used both active and placebo anastrozole and tamoxifen tables, in order to maintain blindness to trial therapy. Anastrozole 1 mg and matching anastrozole placebo were supplied as white, film-coated tablets. Tamoxifen 20 mg active tablets and matching tamoxifen placebo were supplied as white, round, biconvex tablets. Patients were randomised to receive one of three oral therapy regimens. The daily dose is one tablet of anastrozole (1 mg active or placebo) plus one tablet of tamoxifen (20 mg active or placebo). Patients were instructed to take their daily dose at approximately the same time each day. At entry to the trial patients received either a 13-week supply or a 26-week supply of trial material. Patients who received a 13-week supply received a further 13-week supply at the first follow-up visit (3-months). From the 6-month visit onwards, patients received a 26-week supply. In order to assess compliance, patients were asked to return all unused tablets at each visit.
Therapy was started as soon as possible after randomisation, but not more than 8 weeks after completion of surgery and chemotherapy. […] Primary chemotherapy must have started within 8 weeks of completing primary surgery. Patients who stop primary chemotherapy before completion of the planned number of cycles may also be randomised. […] These drugs include the following:— • cytotoxic chemotherapy; • oral adminstration of ketoconazole (antifungal) or related compounds (i.e. topical applications are acceptable); • other hormonal treatments for breast cancer.
Patients were reviewed for recurrence of breast cancer at all follow-up visits, using the following criteria, which are based on British Breast Group recommendations:—
New breast primaries (either contralateral or ipsilateral) were regarded as disease recurrence events in the statistical analyses of time to recurrence.
The primary statistical endpoint of the trial was time to disease recurrence (locoregional or distant recurrence, new primary breast cancer or death from any cause) and safety/tolerability. The secondary statistical endpoints were time to distant recurrence, time to death, the incidence of new breast primaries and the incidence of pre-defined adverse events. In summary, two treatment comparisons were made: (1) anastrozole alone compared to tamoxifen alone and (2) tamoxifen alone compared to anastrozole and tamoxifen in combination.

breast cancer = conditions: adjuvant tamoxifen for two years or more, no concomitant chemotherapy; cited from earlier work
advanced breast cancer = conditions: advanced disease, cited from earlier work

## CC(C)(C#N)c1cc(Cn2cncn2)cc(C(C)(C)C#N)c1 [anastrozole]
[1]; FIG. 4, pre-defined adverse events
  overall tolerability in the adjuvant programme: well tolerated
[1]; endometrial cancer, vaginal bleeding, vaginal discharge, ischemic cerebrovascular events, venous thromboembolic events, hot flushes, weight gain
  tolerability versus tamoxifen: significantly better tolerated
Early breast cancer; FIG. 2, receptor positive population
  rate of disease recurrence, comparison in words: superior to tamoxifen
Early breast cancer; ITT (overall) population, versus tamoxifen, HR <1.00 favours anastrozole or the combination
  HR, disease-free survival: 0.83
Early breast cancer; hormone receptor positive (ER and/or PR positive) patients, versus tamoxifen
  reduction in recurrence rate: 22%
Early breast cancer; main analysis, all patients, versus tamoxifen, locoregional, distant, contralateral events and deaths
  reduction in the rate of recurrence events: 17%
Early breast cancer
  First event: 317
  First events: Contralateral (DCIS): 5
  First events: Contralateral (invasive): 9
  First events: Death - breast cancer: 2
  First events: Death - other reason: 78
  First events: Distant: 156
  First events: Locoregional: 67
Early breast cancer; overall population
  incidence of new primary (contralateral) breast cancer, comparison in words: significantly more effective than tamoxifen
Early breast cancer; overall population, adjuvant treatment of early breast cancer
  disease-free survival / rate of disease recurrence, comparison in words: significantly more effective than tamoxifen; also recorded: superior to tamoxifen
Early breast cancer; overall population, listed as anastrazole
  incidence of new primary (contralateral) breast cancer, comparison in words: superiority
Early breast cancer; overall population, versus tamoxifen
  HR, incidence of new (contralateral) breast primaries: 0.42
Early breast cancer; overall population, versus tamoxifen, 1.00 would show equivalence
  OR, incidence of contralateral breast cancer: 0.42
Early breast cancer; receptor positive population, versus tamoxifen
  HR, disease-free survival: 0.78

## CC/C(=C(\c1ccccc1)c1ccc(OCCN(C)C)cc1)c1ccccc1 [tamoxifen, tamoxifen citrate]
Breast cancer
  annual reduction in mortality: 24%
  annual reduction in recurrence: 39%
[1]; musculoskeletal disorders and fractures
  tolerability versus anastrozole: better tolerated
Advanced breast cancer; ER and PR negative patients
  patients who will respond: < 10%
Advanced breast cancer; ER and PR positive patients
  patients who will respond: approximately 70%
Early breast cancer
  First event: 379
  First events: Contralateral (DCIS): 3
  First events: Contralateral (invasive): 30
  First events: Death - breast cancer: 1
  First events: Death - other reason: 81
  First events: Distant: 181
  First events: Locoregional: 83
